Reference: US12590099B2, “Inhibitors of histone deacetylase useful for the treatment or prevention of HIV infection” (Merck Sharp & Dohme LLC, priority 2018, dated 2026)
Read-outs that look alike come from different tables or passages of the source.

Columns and labels:
[1] = system: KARN cells (Jurkat 2C4); experiment: cells; format: cell-based; settings: Homo sapiens, Jurkat
Summary of the method: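 Jurkat 2C4 (KARN) cells dosed with test compounds up to 40 μM final, 0.4% DMSO, overnight at 5% CO2; luciferase read by Steady-Glo luminescence after 10 min at room temperature. DMSO set as 0% and 2 μM SAHA as 100% induction; 4-parameter fit of percent activation.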

[2] = target: T1, Recombinant human HDAC8 (Homo sapiens, UniProt Q9BY41); experiment: Human HDAC enzyme inhibitor Fluor-de-Lys assay, HDAC8; format: biochemical
T1 construct: purchased Enzo Life Sciences BML-SE145-0100
T1 sequence (Q9BY41 1-377): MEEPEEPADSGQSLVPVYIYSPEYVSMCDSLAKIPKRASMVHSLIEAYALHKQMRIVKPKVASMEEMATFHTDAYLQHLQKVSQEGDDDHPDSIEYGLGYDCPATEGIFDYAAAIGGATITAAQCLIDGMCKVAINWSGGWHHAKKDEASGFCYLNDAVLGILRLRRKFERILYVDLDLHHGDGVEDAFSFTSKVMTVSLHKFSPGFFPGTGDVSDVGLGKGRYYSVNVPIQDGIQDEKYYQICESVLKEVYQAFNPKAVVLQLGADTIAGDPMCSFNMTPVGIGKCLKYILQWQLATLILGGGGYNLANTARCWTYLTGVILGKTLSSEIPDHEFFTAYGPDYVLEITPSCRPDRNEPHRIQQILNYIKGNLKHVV

[3] = target: T2, Recombinant human HDAC1 (Homo sapiens, UniProt Q13547); experiment: Human HDAC enzyme inhibitor Fluor-de-Lys assay, HDAC1; format: biochemical
T2 construct: FLAG (C); made in house
Summary of the method: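 Fluor-de-Lys format at room temperature (23° C.): compounds titrated 10-point, 1:3, preincubated with HDAC before substrate addition; HDAC1 run at 0.3 nM enzyme with 20 μM BML-KI104. Developer with excess HDAC inhibitor ends the reaction, and trypsin-liberated AMC fluorescence is the read-out.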

[4] = target: T3, Recombinant human HDAC2 (Homo sapiens, UniProt Q92769); experiment: Human HDAC enzyme inhibitor Fluor-de-Lys assay, HDAC2; format: biochemical
T3 construct: Full length human HDAC2-FLAG was expressed in baculovirus infected Sf9 cells; FLAG (C); made in house; host or cells: Sf9 (baculovirus)
Summary of the method: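 Fluor-de-Lys format at room temperature (23° C.): compounds titrated 10-point, 1:3, preincubated with HDAC before substrate addition. Developer with excess HDAC inhibitor ends the reaction, and trypsin-liberated AMC fluorescence is the read-out.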

[5] = read-out: Karn EC50 (nM) 0.1% NHS, 0.1% normal human serum, luciferase induction, 100% = 2 μM SAHA
[6] = read-out: Karn EC50 (nM) 5% NHS, 5% normal human serum, luciferase induction, 100% = 2 μM SAHA
[7] = recombinant human HDAC8, Fluor-de-Lys assay
[8] = recombinant human HDAC1, Fluor-de-Lys assay
[9] = recombinant human HDAC2, Fluor-de-Lys assay
[10] = read-out: Karn EC50 (nM) 0.1% NHS, 0.1% normal human serum
[11] = read-out: Karn EC50 (nM) 5% NHS, 5% normal human serum

T2 sequence (Q13547 whole entry): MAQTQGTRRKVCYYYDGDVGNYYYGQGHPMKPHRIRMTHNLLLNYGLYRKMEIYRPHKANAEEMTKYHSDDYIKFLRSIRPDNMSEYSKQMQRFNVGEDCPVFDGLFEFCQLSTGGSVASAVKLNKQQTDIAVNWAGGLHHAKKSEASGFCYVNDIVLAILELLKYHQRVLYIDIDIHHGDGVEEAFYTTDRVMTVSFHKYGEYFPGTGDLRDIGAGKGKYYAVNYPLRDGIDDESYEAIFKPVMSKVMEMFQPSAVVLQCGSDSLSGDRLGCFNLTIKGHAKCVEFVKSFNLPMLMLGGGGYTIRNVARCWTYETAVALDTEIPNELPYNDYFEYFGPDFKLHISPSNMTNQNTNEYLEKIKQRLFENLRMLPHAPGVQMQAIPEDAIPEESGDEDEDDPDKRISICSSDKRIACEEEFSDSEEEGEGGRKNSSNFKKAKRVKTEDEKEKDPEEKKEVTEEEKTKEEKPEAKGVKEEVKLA
T3 sequence (Q92769 whole entry): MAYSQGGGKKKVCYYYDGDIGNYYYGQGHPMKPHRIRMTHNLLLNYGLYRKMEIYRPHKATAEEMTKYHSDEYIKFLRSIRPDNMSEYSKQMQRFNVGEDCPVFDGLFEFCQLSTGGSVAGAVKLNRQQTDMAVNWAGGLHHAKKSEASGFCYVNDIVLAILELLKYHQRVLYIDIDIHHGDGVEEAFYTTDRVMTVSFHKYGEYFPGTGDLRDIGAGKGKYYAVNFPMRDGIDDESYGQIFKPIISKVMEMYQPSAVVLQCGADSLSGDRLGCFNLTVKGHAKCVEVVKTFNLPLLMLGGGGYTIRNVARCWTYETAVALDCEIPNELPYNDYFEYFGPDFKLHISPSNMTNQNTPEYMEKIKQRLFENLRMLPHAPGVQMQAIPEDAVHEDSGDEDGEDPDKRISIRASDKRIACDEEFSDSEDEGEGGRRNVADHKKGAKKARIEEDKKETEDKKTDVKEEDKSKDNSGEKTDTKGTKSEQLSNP

Row | SMILES | EC50 [1, 5] | EC50 [1, 6] | IC50 [2, 7] | IC50 [3, 8] | IC50 [4, 9] | EC50 [1, 10] | EC50 [1, 11] | IC50 [2] | IC50 [3] | IC50 [4]
1 | CCC(=O)CCCCC[C@H](NC(=O)[C@H]1CC12CN(C)C2)c1ncc(-c2cc3ccc(C)nc3cc2OC)o1 (single isomer, unassigned) [Compound 230] | 88 nM | 83 nM | > 900 nM | 0.4 nM | 2.7 nM | – | – | – | – | –
2 | CCC(=O)CCCCC[C@H](NC(=O)[C@@H]1CC12CN(C)C2)c1ncc(-c2cc3ccc(C)nc3cc2OC)o1 (single isomer, unassigned) [Compound 231] | 589 nM | 535 nM | > 900 nM | 1.26 nM | 19.2 nM | – | – | – | – | –
3 | CCC(=O)CCCCC[C@H](NC(=O)C1CC12CC1CCC(C2)N1C)c1ncc(-c2ccc3ncccc3c2)[nH]1 (single isomer, unassigned) [Compound 242] | 1690 nM | 2770 nM | 5100 nM | 3.94 nM | 16.1 nM | – | – | – | – | –
4 | CCC(=O)CCCCC[C@H](NC(=O)[C@H]1CC12CCN(C)CC2)c1ncc(-c2ccc3nc(C(F)(F)F)ccc3c2)o1 [Compound 78, (1S)-6-methyl-N-[(1S)-7-oxo-1-{5-[2-(trifluoromethyl)quinolin-6-yl]-1,3-oxazol-2-yl}nonyl]-6-azaspiro[2.5]octane-1-carboxamide] | – | – | – | – | – | 911 nM | 1440 nM | > 45000 nM | 18.3 nM | 62.3 nM
5 | CCC(=O)CCCCC[C@H](NC(=O)[C@H]1CC12CCN(C)CC2)c1ncc(-c2ccc3nc(C)ccc3c2)o1 [Compound 80] | – | – | – | – | – | 435 nM | 501 nM | > 45000 nM | 2.89 nM | 14.8 nM
6 | CCC(=O)CCCCC[C@H](NC(=O)[C@H]1CC12CCN(C)CC2)c1nc(Cl)c(-c2cc3ccccc3nc2O)[nH]1 [Compound 81, (1S)—N-{(1S)-1-[4-chloro-5-(2-hydroxyquinolin-3-yl)-1H-imidazol-2-yl]-7-oxononyl}-6-methyl-6-azaspiro[2.5]octane-1-carboxamide] | – | – | – | – | – | 6430 nM | 10700 nM | 5350 nM | 88.2 nM | 337 nM
7 | CCC(=O)CCCCC[C@H](NC(=O)[C@H]1CC12CCN(C(C)C)CC2)c1ncc(-c2ccc3nc(C)ccc3c2)[nH]1 [Compound 83] | – | – | – | – | – | 64 nM | 60 nM | 15200 nM | < 1.5 nM | < 1.5 nM
8 | CN1CCC2(CC1)C[C@@H]2C(=O)N[C@@H](CCCCCC(=O)CC1CC1)c1ncc(-c2ccc(F)cc2)[nH]1 [Compound 84] | – | – | – | – | – | 632 nM | 1180 nM | 14300 nM | 9.95 nM | 63.8 nM
9 | CCC(=O)CCCCC[C@H](NC(=O)[C@H]1CC12CCN(C)CC2)c1ncc(-c2coc3ccccc3c2=O)[nH]1 [Compound 86] | – | – | – | – | – | 1060 nM | 1510 nM | 3170 nM | 15.9 nM | 64.8 nM
10 | CCC(=O)CCCCC[C@H](NC(=O)[C@H]1CC12CCN(C)CC2)c1ncc(-c2ccc3ncoc3c2)[nH]1 [Compound 89] | – | – | – | – | – | 219 nM | 237 nM | 9700 nM | 3.63 nM | –
11 | CCC(=O)CCCCC[C@H](NC(=O)[C@H]1CC12CCN(C)CC2)c1ncc(-c2ccc3cc(C#N)ccc3c2)[nH]1 [Compound 90] | – | – | – | – | – | 52 nM | 33 nM | 2640 nM | 0.28 nM | 1.6 nM
12 | CCC(=O)CCCCC[C@H](NC(=O)[C@H]1CC12CCN(C)CC2)c1[nH]c(-c2ccc(F)cc2)nc1Cl [Compound 91] | – | – | – | – | – | 207 nM | 274 nM | 31900 nM | 4.38 nM | 14.2 nM
13 | CCC(=O)CCCCC[C@H](NC(=O)[C@H]1CC12CCN(CC)CC2)c1ncc(-c2ccc(-c3nccs3)cc2)o1 [Compound 93] | – | – | – | – | – | 688 nM | 736 nM | 31800 nM | 7.15 nM | 25.6 nM
14 | CCC(=O)CCCCC[C@H](NC(=O)[C@H]1CC12CCN(CC)CC2)c1ncc(-c2ccc(-c3ncco3)cc2)o1 [Compound 94] | – | – | – | – | – | 502 nM | 549 nM | 44200 nM | 9.13 nM | 34 nM
15 | CCC(=O)CCCCC[C@H](NC(=O)[C@H]1CC12CCN(CC)CC2)c1ncc(-c2ccc(-n3cccn3)cc2)o1 [Compound 95] | – | – | – | – | – | 522 nM | 747 nM | 20500 nM | 5.26 nM | 31.5 nM
16 | CCC(=O)CCCCC[C@H](NC(=O)[C@H]1CC12CCN(C(C)C)CC2)c1ncc(-c2ccc3c(ccc(=O)n3C)c2)o1 [Compound 96] | – | – | – | – | – | 1370 nM | 1510 nM | > 45000 nM | 6.9 nM | 44.5 nM
17 | CCC(=O)CCCCC[C@H](NC(=O)[C@H]1CC12CCN(CC)CC2)c1ncc(-c2ccc3c(ccc(=O)n3C)c2)o1 [Compound 97] | – | – | – | – | – | 563 nM | 660 nM | > 45000 nM | 6.52 nM | 23 nM
18 | CCC(=O)CCCCC[C@H](NC(=O)[C@H]1CC12CCN(C(C)C)CC2)c1ncc(-c2cc3ccccc3nc2OC)o1 [Compound 99] | – | – | – | – | – | 162 nM | 310 nM | 32900 nM | 3.55 nM | 17.8 nM
19 | CCC(=O)CCCCC[C@H](NC(=O)[C@H]1CC12CCN(C(C)C)CC2)c1ncc(-c2ccc3nc(C4CC4)ccc3c2)[nH]1 [Compound 100] | – | – | – | – | – | 68 nM | 64 nM | 8250 nM | < 1.5 nM | < 1.5 nM
20 | CCC(=O)CCCCC[C@H](NC(=O)C1=NOC2(CCN(C)CC2)C1)c1ncc(-c2ccc(-c3cccnc3)cc2OC)o1 [Compound 222, N-{(1S)-1-[5-(2-methoxy-4-pyridin-3-ylphenyl)-1,3-oxazol-2-yl]-7-oxononyl}-8-methyl-1-oxa-2,8-diazaspiro[4.5]dec-2-ene-3-carboxamide] | 298 nM | 364 nM | > 900 nM | 1.61 nM | 24.5 nM | – | – | – | – | –
21 | CCC(=O)CCCCC[C@H](NC(=O)C1=NOC2(CCN(C)CC2)C1)c1ncc(-c2cc3cccnc3cc2OC)o1 [Compound 223] | 272 nM | 559 nM | > 900 nM | 1.54 nM | 9.7 nM | – | – | – | – | –
22 | CCC(=O)CCCCC[C@H](N)c1ncc(-c2cc3ccc(=O)n(C)c3cc2OC)o1 [Compound 224] | 5000 nM | 6970 nM | > 900 nM | 38.7 nM | 444 nM | – | – | – | – | –
23 | CCC(=O)CCCCC[C@H](NC(=O)C1=NOC2(CCN(CC3CC3)CC2)C1)c1ncc(-c2cc3ccc(C)nc3cc2OC)o1 [Compound 225] | 217 nM | 247 nM | > 900 nM | 0.6 nM | 6.2 nM | – | – | – | – | –
24 | CCC(=O)CCCCC[C@H](NC(=O)[C@H]1CC12CCN(CC1CC1)CC2)c1ncc(-c2cc3ccc(C)nc3cc2F)[nH]1 [Compound 228] | 22 nM | 22 nM | > 900 nM | 0.12 nM | 0.6 nM | – | – | – | – | –
25 | CCC(=O)CCCCC[C@H](NC(=O)[C@H]1CC12CCN(CC1CC1)CC2)c1ncc(-c2cc3ccn(C)c(=O)c3cc2OC)o1 [Compound 229] | 31 nM | 29 nM | > 900 nM | 0.09 nM | 0.7 nM | – | – | – | – | –
26 | CCC(=O)CCCCC[C@H](NC(=O)C1=NOC2(CCN(C)CC2)C1)c1ncc(-c2cc3ccc(C)nc3cc2F)[nH]1 [Compound 232] | 144 nM | 248 nM | > 900 nM | 1.33 nM | 21.4 nM | – | – | – | – | –
27 | CCC(=O)CCCCC[C@H](NC(=O)C1=NOC2(CCN(CC)CC2)C1)c1ncc(-c2cc3ccc(C)nc3cc2F)[nH]1 [Compound 233] | 166 nM | 230 nM | > 900 nM | 3.59 nM | 25.2 nM | – | – | – | – | –
28 | CCC(=O)CCCCC[C@H](NC(=O)C1=NOC2(CCN(CC3CC3)CC2)C1)c1ncc(-c2cc3ccc(C)nc3cc2F)[nH]1 [Compound 234] | 160 nM | 262 nM | > 900 nM | 0.56 nM | 14.1 nM | – | – | – | – | –
29 | CCC(=O)CCCCC[C@H](NC(=O)C1=NOC2(CCN(CC)CC2)C1)c1ncc(-c2cc3ccc(=O)n(C)c3cc2OC)o1 [Compound 235] | 249 nM | 411 nM | > 900 nM | 0.7 nM | 12.4 nM | – | – | – | – | –
